The record followed here is patent US20230158071A1, “TUMOR COMBINED IMMUNOTHERAPY” (CRAGE medical Co., Limited, priority 2018, published 2023).

The subject of the data set is 4T1-EGFRvIII orthotopic breast cancer xenografts. Kind of data set: Mouse 4T1-EGFRvIII orthotopic breast cancer xenografts, olaparib and CAR-T. It is filed as in vivo, BALB/c mice. The note with it: olaparib 50 mg/kg i.p. with CAR-T cells. The procedure:
(1) Establishment of mouse orthotopic breast cancer model and respective treatment in groups:
4T1-EGFRvIII cells in the logarithmic growth phase and growing well are collected, inoculating 5×10^5 target cells at right side position of the third pair of accessory breasts of BABL/C mice (mice with normal immune system), and the inoculating day is recorded as the first day (i.e., Day 1).
On the 10th day after tumor inoculation (i.e. Day 10), mouse T cells are taken and 806-mCD28z-CAR-T cell line is constructed as described in step 1 of this example.
On the 14th day after tumor inoculation (i.e., Day 14), the volume of the tumor reaches about 150 mm^3, and the mice are divided in groups: […]
(2) Detection of tumor volume. The tumor volume changes of mice are observed and measured continuously, and recorded three times a week. […]
(4) Detection of CAR-T copy number in tumor tissues. Tumor tissues of each group of mice are ground to extract DNA, and the sequence of retroviral vector fragment is detected by Taqman probe method to determine the DNA copy number of 806-mCD28z-CAR. […]
(6) Detection of MDSC cells in tumor tissue. The tumor tissues of mice in each group are ground, and after enzyme digestion, the changes in the proportion of MDSC cells are analyzed by flow cytometry. […]

In the case of `O=C(c1cc(Cc2n[nH]c(=O)c3ccccc23)ccc1F)N1CCN(C(=O)C2CC2)CC1` [olaparib], the “toxicity of combining olaparib with CAR-T cell therapy (from body weights)” value was “do not cause significant toxicity”.
